Values joined by “and” are separate entries in the source; they are usually repeats but may differ in a detail not shown here. Equal values may be shown once. ± gives the expanded uncertainty stated by the source.
Settings: Liquid, Gas chromatography

CCCCCCCC/C=C/CCCCCCCCCCCCC [(E)-9-tricosene]
Settings | vapor or sublimation pressure
298.15 K | 1.041e-07 kPa and 1.013e-07 kPa
308.15 K | 4.621e-07 kPa and 4.52e-07 kPa
318.15 K | 1.828e-06 kPa and 1.795e-06 kPa
328.15 K | 6.514e-06 kPa and 6.421e-06 kPa
338.15 K | 2.089e-05 kPa and 2.112e-05 kPa
358.15 K | 0.0001722 ± 0.0002 kPa and 0.000173 ± 0.0002 kPa
368.15 K | 0.0004428 ± 0.0002 kPa and 0.0004438 ± 0.0002 kPa
378.15 K | 0.001067 ± 0.00021 kPa
388.15 K | 0.002425 ± 0.00026 kPa and 0.002419 ± 0.00026 kPa
398.15 K | 0.005195 ± 0.00042 kPa and 0.00522 ± 0.00042 kPa
408.15 K | 0.01062 ± 0.00082 kPa and 0.01069 ± 0.00083 kPa
418.15 K | 0.02075 ± 0.0016 kPa and 0.02093 ± 0.0016 kPa
428.15 K | 0.0389 ± 0.003 kPa and 0.0393 ± 0.003 kPa
438.15 K | 0.07017 ± 0.0054 kPa and 0.07101 ± 0.0055 kPa
448.15 K | 0.1222 ± 0.0095 kPa and 0.1238 ± 0.0096 kPa
458.15 K | 0.2059 ± 0.016 kPa and 0.209 ± 0.016 kPa
468.15 K | 0.3368 ± 0.026 kPa and 0.3423 ± 0.027 kPa
478.15 K | 0.5356 ± 0.042 kPa and 0.5451 ± 0.042 kPa
488.15 K | 0.83 ± 0.064 kPa and 0.8458 ± 0.066 kPa
498.15 K | 1.256 ± 0.097 kPa and 1.281 ± 0.099 kPa
508.15 K | 1.858 ± 0.14 kPa and 1.898 ± 0.15 kPa
518.15 K | 2.693 ± 0.21 kPa and 2.753 ± 0.21 kPa
528.15 K | 3.828 ± 0.3 kPa and 3.918 ± 0.3 kPa
538.15 K | 5.344 ± 0.41 kPa and 5.475 ± 0.42 kPa
548.15 K | 7.336 ± 0.57 kPa and 7.523 ± 0.58 kPa
558.15 K | 9.914 ± 0.77 kPa and 10.18 ± 0.79 kPa
568.15 K | 13.2 ± 1 kPa and 13.56 ± 1.1 kPa
578.15 K | 17.34 ± 1.3 kPa and 17.82 ± 1.4 kPa
588.15 K | 22.48 ± 1.7 kPa and 23.12 ± 1.8 kPa
598.15 K | 28.79 ± 2.2 kPa and 29.64 ± 2.3 kPa
608.15 K | 36.46 ± 2.8 kPa and 37.56 ± 2.9 kPa
618.15 K | 45.67 ± 3.5 kPa and 47.09 ± 3.6 kPa
628.15 K | 56.64 ± 4.4 kPa and 58.44 ± 4.5 kPa
638.15 K | 69.59 ± 5.4 kPa and 71.83 ± 5.6 kPa
648.15 K | 84.72 ± 6.6 kPa and 87.52 ± 6.8 kPa
655 K | 99.7 ± 7.7 kPa
656 K | 98.29 ± 7.6 kPa

CCCCCCCC/C=C\CCCCCCCCCCCCC [(Z)-tricos-9-ene]
Settings | vapor or sublimation pressure
298.15 K | 1.146e-07 kPa and 1.205e-07 kPa
308.15 K | 5.055e-07 kPa and 5.324e-07 kPa
318.15 K | 1.987e-06 kPa and 2.096e-06 kPa
328.15 K | 7.042e-06 kPa and 7.434e-06 kPa
358.15 K | 0.0001951 ± 0.0002 kPa and 0.0001844 ± 0.0002 kPa
368.15 K | 0.0004985 ± 0.0002 kPa and 0.0004708 ± 0.0002 kPa
378.15 K | 0.001195 ± 0.00022 kPa and 0.001128 ± 0.00021 kPa
388.15 K | 0.0027 ± 0.00028 kPa and 0.002546 ± 0.00027 kPa
398.15 K | 0.00545 ± 0.00043 kPa and 0.005782 ± 0.00046 kPa
408.15 K | 0.01111 ± 0.00086 kPa and 0.01179 ± 0.00091 kPa
418.15 K | 0.02163 ± 0.0017 kPa and 0.02297 ± 0.0018 kPa
428.15 K | 0.04041 ± 0.0031 kPa and 0.04294 ± 0.0033 kPa
438.15 K | 0.07269 ± 0.0056 kPa and 0.07727 ± 0.006 kPa
448.15 K | 0.1262 ± 0.0098 kPa and 0.1343 ± 0.01 kPa
458.15 K | 0.2121 ± 0.016 kPa and 0.2258 ± 0.017 kPa
468.15 K | 0.346 ± 0.027 kPa and 0.3684 ± 0.029 kPa
478.15 K | 0.5489 ± 0.043 kPa and 0.5848 ± 0.045 kPa
488.15 K | 0.8487 ± 0.066 kPa and 0.9046 ± 0.07 kPa
498.15 K | 1.281 ± 0.099 kPa and 1.366 ± 0.11 kPa
508.15 K | 1.891 ± 0.15 kPa and 2.018 ± 0.16 kPa
518.15 K | 2.735 ± 0.21 kPa and 2.92 ± 0.23 kPa
528.15 K | 3.88 ± 0.3 kPa and 4.144 ± 0.32 kPa
538.15 K | 5.406 ± 0.42 kPa and 5.777 ± 0.45 kPa
548.15 K | 7.406 ± 0.57 kPa and 7.919 ± 0.61 kPa
558.15 K | 9.989 ± 0.77 kPa and 10.69 ± 0.83 kPa
568.15 K | 13.28 ± 1 kPa and 14.21 ± 1.1 kPa
578.15 K | 17.41 ± 1.4 kPa and 18.64 ± 1.4 kPa
588.15 K | 22.53 ± 1.8 kPa and 24.14 ± 1.9 kPa
598.15 K | 28.81 ± 2.2 kPa and 30.88 ± 2.4 kPa
608.15 K | 36.42 ± 2.8 kPa and 39.06 ± 3 kPa
618.15 K | 45.55 ± 3.5 kPa and 48.88 ± 3.8 kPa
628.15 K | 56.41 ± 4.4 kPa and 60.56 ± 4.7 kPa
638.15 K | 69.19 ± 5.4 kPa and 74.32 ± 5.8 kPa
648.15 K | 84.12 ± 6.5 kPa and 90.4 ± 7 kPa
656 K | 104.81 ± 8.1 kPa
658.15 K | 101.4 ± 7.9 kPa

From the NIST ThermoML archive (doi:10.1021/je4008052)
